According to patent publication US20080108067A1, “Cloning of the retinoic acid inducible gene-1 promoter and uses thereof” (priority 2004, published 2008):

System: human RIG-1 promoter (RIG-PROM-LUC reporter)
Experiment: RIG-PROM-LUC luciferase reporter activity in response to inducers in transfected human cells
Assay type: cell-based

## CC1=C(/C=C/C(C)=C/C=C/C(C)=C/C(=O)O)C(C)(C)CCC1 [retinoic acid, all Trans-retinoic acid]
FM516 and HeLa cells, IFN-β induction greater than PolyIC:PolyIC and least with retinoic acid, FIG. 2
  activation of promoter activity (RIG-PROM-LUC): robust activation
Depending on the cell line (FM516, T47D, HeLa, PHFA), inducer 6 h then overnight incubation
  response of reporter compared to untreated controls: around 1.5 fold
